Assay results taken from patent publication US10689367B2, “Triazole pyridyl compounds as agonists of the APJ receptor” (AMGEN INC., priority 2016, dated 2020).

Target: human APJ receptor (Homo sapiens (Human), UniProt P35414)
Assay: [35S]GTPγS binding assay on membranes from CHO cells stably expressing human APJ receptor
Format: biochemical
Conditions: membranes of CHO cells stably expressing human APJ receptor, read-out: Activity hAPJ SPA EC50 IP
Description: The human APJ receptor was cloned by polymerase chain reaction and the gene encoding the receptor was subcloned in pFLAG-CMV™-3 expression vector (Sigma, Saint Louis, Mo. USA) in-house at Amgen. A GTPγS binding assay was performed on membranes prepared from CHO cells stably expressing human APJ receptor. The optimum experimental conditions for the concentrations of GDP, MgCl2, and NaCl in the assay buffer were initially determined. […] Incubation was at RT for 90 min and the microplate was read using a ViewLux™ ultra HTS Microplate Imager (PerkinElmer, Inc.). All the results presented are means of several independent experiments and analyzed by non-linear regression methods using the commercially available program Prism (GraphPad, San Diego, Calif.) providing the EC50 values detailed in Table 27.

Chain of human APJ receptor (P35414 whole entry): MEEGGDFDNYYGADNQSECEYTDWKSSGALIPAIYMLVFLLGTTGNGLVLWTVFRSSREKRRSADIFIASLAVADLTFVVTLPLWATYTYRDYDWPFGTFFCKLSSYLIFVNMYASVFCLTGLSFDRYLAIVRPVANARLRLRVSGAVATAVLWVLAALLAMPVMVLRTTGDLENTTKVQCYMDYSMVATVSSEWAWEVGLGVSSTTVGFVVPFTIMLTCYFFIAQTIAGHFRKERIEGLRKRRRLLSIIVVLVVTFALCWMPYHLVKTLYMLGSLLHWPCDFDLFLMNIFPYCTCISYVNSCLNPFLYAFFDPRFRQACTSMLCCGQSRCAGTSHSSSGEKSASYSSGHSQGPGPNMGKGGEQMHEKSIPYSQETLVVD

Row | SMILES | EC50 [nM]
1 | CO[C@H](c1ncc(Cl)cn1)[C@H](C)S(=O)(=O)Nc1nnc(-c2cncc(C)c2)n1C1CC12CC2 (mixture of isomers) [Example 150.0, (1R,2S)-1-(5-Chloropyrimidin-2-yl)-1-methoxy-N-(5-(5-methylpyridin-3-yl)-4-((R)-spiro[2.2]pentan-1-yl)-4H-1,2,4-triazol-3-yl)propane-2-sulfonamide and (1R,2S)-1-(5-chloropyrimidin-2-yl)-1-methoxy-N-(5-(5-methylpyridin-3-yl)-4-((S)-spiro[2.2]pentan-1-yl)-4H-1,2,4-triazol-3-yl)propane-2-sulfonamide] | 100
2 | COc1cccc(-c2nnc(NS(=O)(=O)[C@@H](C)[C@H](OC)c3ncc(Cl)cn3)n2C2CC2(F)F)n1 (mixture of isomers) [Example 156.0, (1R,2S)-1-(5-Chloropyrimidin-2-yl)-N-(4-((S)-2,2-difluorocyclopropyl)-5-(6-methoxypyridin-2-yl)-4H-1,2,4-triazol-3-yl)-1-methoxypropane-2-sulfonamide and (1R,2S)-1-(5-chloropyrimidin-2-yl)-N-(4-((R)-2,2-difluorocyclopropyl)-5-(6-methoxypyridin-2-yl)-4H-1,2,4-triazol-3-yl)-1-methoxypropane-2-sulfonamide] | 37
3 | COc1cccc(-c2nnc(NS(=O)(=O)[C@@H](C)[C@H](OC)c3ncc(Cl)cn3)n2[C@@H](C)c2ccno2)n1 (mixture of isomers) [Example 200.0, (1R,2S)-1-(5-chloro-2-pyrimidinyl)-1-methoxy-N-(5-(6-methoxy-2-pyridinyl)-4-((1R)-1-(1,2-oxazol-5-yl)ethyl)-4H-1,2,4-triazol-3-yl)-2-propanesulfonamide and (1R,2S)-1-(5-chloro-2-pyrimidinyl)-1-methoxy-N-(5-(6-methoxy-2-pyridinyl)-4-((1S)-1-(1,2-oxazol-5-yl)ethyl)-4H-1,2,4-triazol-3-yl)-2-propanesulfonamide] | 0.87
4 | COc1cccc(-c2nnc(NS(=O)(=O)[C@@H](C)[C@H](C)c3ncc(Cl)cn3)n2[C@@H](C)c2ccno2)n1 (mixture of isomers) [Example 201.0, (2S,3R)-3-(5-chloro-2-pyrimidinyl)-N-(5-(6-methoxy-2-pyridinyl)-4-((1R)-1-(1,2-oxazol-5-yl)ethyl)-4H-1,2,4-triazol-3-yl)-2-butanesulfonamide and (2S,3R)-3-(5-chloro-2-pyrimidinyl)-N-(5-(6-methoxy-2-pyridinyl)-4-((1S)-1-(1,2-oxazol-5-yl)ethyl)-4H-1,2,4-triazol-3-yl)-2-butanesulfonamide] | 3.5
5 | CC[C@H](c1c(C)noc1C)n1c(NS(=O)(=O)[C@@H](C)[C@H](OC)c2cnc(C)cn2)nnc1-c1cccc(OC)n1 (mixture of isomers) [Example 208.0, (1R,2S)-N-(4-((1R)-1-(3,5-dimethyl-1,2-oxazol-4-yl)propyl)-5-(6-methoxy-2-pyridinyl)-4H-1,2,4-triazol-3-yl)-1-methoxy-1-(5-methyl-2-pyrazinyl)-2-propanesulfonamide and (1R,2S)-N-(4-((1S)-1-(3,5-dimethyl-1,2-oxazol-4-yl)propyl)-5-(6-methoxy-2-pyridinyl)-4H-1,2,4-triazol-3-yl)-1-methoxy-1-(5-methyl-2-pyrazinyl)-2-propanesulfonamide] | 42
6 | CC[C@H](c1c(C)noc1C)n1c(NS(=O)(=O)[C@@H](C)[C@@H](OC(C)C)c2ncc(C)cn2)nnc1-c1cccc(OC)n1 (mixture of isomers) [Example 209.0, (1S,2S)-N-(4-((1R)-1-(3,5-dimethyl-1,2-oxazol-4-yl)propyl)-5-(6-methoxy-2-pyridinyl)-4H-1,2,4-triazol-3-yl)-1-(5-methyl-2-pyrimidinyl)-1-(2-propanyloxy)-2-propanesulfonamide and (1S,2S)-N-(4-((1S)-1-(3,5-dimethyl-1,2-oxazol-4-yl)propyl)-5-(6-methoxy-2-pyridinyl)-4H-1,2,4-triazol-3-yl)-1-(5-methyl-2-pyrimidinyl)-1-(2-propanyloxy)-2-propanesulfonamide] | 14
7 | CC[C@H](c1c(C)noc1C)n1c(NS(=O)(=O)[C@@H](C)[C@H](C)c2ncc(Cl)cn2)nnc1-c1cccc(OC)n1 (mixture of isomers) [Example 210.0, (2S,3R)-3-(5-chloro-2-pyrimidinyl)-N-(4-((1R)-1-(3,5-dimethyl-1,2-oxazol-4-yl)propyl)-5-(6-methoxy-2-pyridinyl)-4H-1,2,4-triazol-3-yl)-2-butanesulfonamide and (2S,3R)-3-(5-chloro-2-pyrimidinyl)-N-(4-((1S)-1-(3,5-dimethyl-1,2-oxazol-4-yl)propyl)-5-(6-methoxy-2-pyridinyl)-4H-1,2,4-triazol-3-yl)-2-butanesulfonamide] | 5.3
8 | CC[C@H](c1c(C)noc1C)n1c(NS(=O)(=O)[C@@H](C)[C@H](OC)c2ncc(Cl)cn2)nnc1-c1cccc(OC)n1 (mixture of isomers) [Example 211.0, (1R,2S)-1-(5-chloro-2-pyrimidinyl)-N-(4-((1R)-1-(3,5-dimethyl-1,2-oxazol-4-yl)propyl)-5-(6-methoxy-2-pyridinyl)-4H-1,2,4-triazol-3-yl)-1-methoxy-2-propanesulfonamide and (1R,2S)-1-(5-chloro-2-pyrimidinyl)-N-(4-((1S)-1-(3,5-dimethyl-1,2-oxazol-4-yl)propyl)-5-(6-methoxy-2-pyridinyl)-4H-1,2,4-triazol-3-yl)-1-methoxy-2-propanesulfonamide] | 1.8
9 | COc1cccc(-c2nnc(NS(=O)(=O)[C@@H](C)[C@@H](OC(C)C)c3ncc(C)cn3)n2[C@H](c2conc2C)C2CC2)n1 (mixture of isomers) [Example 226.0, (1S,2S)-N-(4-((R)-cyclopropyl(3-methyl-1,2-oxazol-4-yl)methyl)-5-(6-methoxy-2-pyridinyl)-4H-1,2,4-triazol-3-yl)-1-(5-methyl-2-pyrimidinyl)-1-(2-propanyloxy)-2-propanesulfonamide and (1S,2S)-N-(4-((S)-cyclopropyl(3-methyl-1,2-oxazol-4-yl)methyl)-5-(6-methoxy-2-pyridinyl)-4H-1,2,4-triazol-3-yl)-1-(5-methyl-2-pyrimidinyl)-1-(2-propanyloxy)-2-propanesulfonamide] | 0.88
10 | CC[C@@H](c1conc1C)n1c(NS(=O)(=O)[C@@H](C)[C@H](C)c2ncc(Cl)cn2)nnc1-c1cccc(OC)n1 (mixture of isomers) [Example 227.0, (2S,3R)-3-(5-chloro-2-pyrimidinyl)-N-(5-(6-methoxy-2-pyridinyl)-4-((1R)-1-(3-methyl-1,2-oxazol-4-yl)propyl)-4H-1,2,4-triazol-3-yl)-2-butanesulfonamide and (2S,3R)-3-(5-chloro-2-pyrimidinyl)-N-(5-(6-methoxy-2-pyridinyl)-4-((1S)-1-(3-methyl-1,2-oxazol-4-yl)propyl)-4H-1,2,4-triazol-3-yl)-2-butanesulfonamide] | 4.5
